Source: US7816560B1, “Long chain n-alkyl compounds and oxa-derivatives thereof” (Thomas Jefferson University, priority 1999, dated 2010)
Like-named read-outs stand apart in the source and are kept apart here.

Key:
[1] = Toxicity / cell cytotoxicity in MDBK cells; type: cell-based; details: bovine
α-glucosidase = test: Inhibition of α-glucosidase; type: biochemical; details: for Inhibitor of α glucosidase: Yes/No
From the text: The inhibitory activity (IC50) and the cell cytotoxicity (IC50) of various compounds, as well as their effect on α-glucosidase and ceramide glucosyl transferase, are shown in Table 2.

[2] = molecular target: T1, ceramide glucosyl transferase (CerGlcT) (Homo sapiens, UniProt Q16739); test: Inhibition of ceramide glucosyl transferase / glycolipid synthesis; type: biochemical; details: Yes/No
T1 sequence (Q16739 1-394): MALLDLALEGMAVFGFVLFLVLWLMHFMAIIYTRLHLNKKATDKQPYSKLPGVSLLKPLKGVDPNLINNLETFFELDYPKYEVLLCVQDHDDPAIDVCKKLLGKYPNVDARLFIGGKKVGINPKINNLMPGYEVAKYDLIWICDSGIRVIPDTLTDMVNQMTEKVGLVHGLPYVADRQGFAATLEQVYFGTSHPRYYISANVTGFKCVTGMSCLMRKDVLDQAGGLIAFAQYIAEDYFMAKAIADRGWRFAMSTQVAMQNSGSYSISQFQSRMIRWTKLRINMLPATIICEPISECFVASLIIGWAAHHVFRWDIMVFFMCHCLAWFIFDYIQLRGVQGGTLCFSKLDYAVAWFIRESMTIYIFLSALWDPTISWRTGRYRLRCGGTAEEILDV

BVDV = BVDV plaque reduction and yield assays in MDBK cells; type: cell-based, bovine viral diarrhea virus; details: for Anti-viral effect on BVDV in MDBK cells: Yes/No
MDBK cells = test: Toxicity / cell cytotoxicity in MDBK cells; type: cell-based; details: for % Viability at 10 μM: N-alkyl DNJ at 10 μM; for % Viability at 100 μM: N-alkyl DNJ at 100 μM
HBV [3] = test: Secreted HBV DNA by Southern blot hybridization; type: cell-based, hepatitis B virus; details: HepG2.2.15 cells, seven days
Procedure: Secreted DNA analysis: Secreted DNA analysis was performed by the method of Wei et al. (J. Virol. 70:6455-6458, 1996). […] Media containing drug was changed every two days and on the 7th day the media taken and the virus concentrated by pelleting through 20% sucrose for 16 hours (SW 41 rotor, 36,000 RPM). Virus was resuspended in 400 μL of 10 mM TRIS (pH 7.9), 10 mM EDTA (pH 8.0), and 10 mM MgCl2. Samples were split into two 200 μL aliquots and labeled as +Dnase and −Dnase. To both tubes, 15 μl of proteinase K was added to a final concentration of 750 μg/ml for one hour at 37° C. After one hour, 10 pl Dnase was added to the tube labeled +Dnase (final concentration is 50 units/ml) and incubated at 37° C. for one hour. SDS was added to a final concentration of 1% and additional proteinase K added to a final concentration of 500 μg/ml and the reaction allowed to proceed at 37° C. for 3-4 hours. DNA was than purified by phenol/chloroform extraction. DNA was separated on 1% agarose gel and probed with ^32P labeled probes as described (Mehta et al., Proc. Natl. Acad. Sci. USA 94:1822-1827, 1997).
HepG2.2.15 cells were grown for seven days in the absence or presence of NB-DNJ (1000 μg/ml), NN-DNJ (20 μg/ml) or NN-DGJ (20 μg/ml), respectively. After seven days, virus was isolated from these cell cultures, concentrated, and purified. Secreted HBV DNA was detected by Southern blot hybridization. HBV viral DNA from untreated cells was readily detected. The secretion of HBV DNA from treated HepG2.2.15 was also detected.

HBV [4] = test: Intracellular HBV DNA in HepG2.2.15 cells by Southern blot; type: cell-based, hepatitis B virus; details: seven days; for Effect on intracellular HBV DNA: 3TC 1 μg/ml, NB-DNJ 1000 μg/ml, NN-DNJ and NN-DGJ 2 or 20 μg/ml
Procedure: Intracellular DNA analysis: Hep G2.2.15 cells were either left untreated or treated with the compounds listed above for seven days and the total DNA extracted as described (Mehta et al., ibid). DNA (20 μg) was digested with HindIII, resolved through a 1.2% agarose gel and transferred to nylon membranes. Membranes were then hybridized with a ^32P labeled probe containing the total HBV genome and developed as described (Lu et al., Proc. Natl. Acad. Sci. USA 94:2380-2385, 1997). The relaxed circular (rc), linear (lin), and closed circular (CCC) DNA were confirmed by enzymatic digestion.
An infected cell contains several forms of HBV DNA which represent different stages in the HBV life cycle. For example, covalently closed circular DNA (CCC DNA) is the nuclear form of the DNA and is thought to be the viral template (Heermann & Gerlich, 1992). In contrast, the relaxed circular DNA (re DNA) and linear forms (lin) are associated with the viral particle and their presence is an indicator of encapsidation of the viral pre-genomic RNA and the subsequent reverse transcription into progeny DNA (Ganem, Curr. Top. Microbiol. Immunol. 168:61-83, 1991). […] The amount of virus associated with the cells was detected seven days later by Southern blot analysis. The locations of the HBV relaxed circular DNA (rcDNA), covalently close circular (CCC) DNA, and single stranded (SS) DNA was identified by relative mobility.

HBV polymerase = molecular target: T2, HBV polymerase (Hepatitis B virus genotype D subtype ayw, UniProt P03156); test: Endogenous polymerase assay on purified HBV virions; type: biochemical
T2 construct: HBV virions were purified from the culture medium of untreated cells by ultracentrifugation and the polymerase activity (in the presence of the indicated compounds) tested; expressed in transfected cells; host or cells: Hep G2.2.15 (HepG2 stably transfected with a dimer of the HBV genome); virions pelleted from the culture medium
T2 sequence (P03156 whole entry): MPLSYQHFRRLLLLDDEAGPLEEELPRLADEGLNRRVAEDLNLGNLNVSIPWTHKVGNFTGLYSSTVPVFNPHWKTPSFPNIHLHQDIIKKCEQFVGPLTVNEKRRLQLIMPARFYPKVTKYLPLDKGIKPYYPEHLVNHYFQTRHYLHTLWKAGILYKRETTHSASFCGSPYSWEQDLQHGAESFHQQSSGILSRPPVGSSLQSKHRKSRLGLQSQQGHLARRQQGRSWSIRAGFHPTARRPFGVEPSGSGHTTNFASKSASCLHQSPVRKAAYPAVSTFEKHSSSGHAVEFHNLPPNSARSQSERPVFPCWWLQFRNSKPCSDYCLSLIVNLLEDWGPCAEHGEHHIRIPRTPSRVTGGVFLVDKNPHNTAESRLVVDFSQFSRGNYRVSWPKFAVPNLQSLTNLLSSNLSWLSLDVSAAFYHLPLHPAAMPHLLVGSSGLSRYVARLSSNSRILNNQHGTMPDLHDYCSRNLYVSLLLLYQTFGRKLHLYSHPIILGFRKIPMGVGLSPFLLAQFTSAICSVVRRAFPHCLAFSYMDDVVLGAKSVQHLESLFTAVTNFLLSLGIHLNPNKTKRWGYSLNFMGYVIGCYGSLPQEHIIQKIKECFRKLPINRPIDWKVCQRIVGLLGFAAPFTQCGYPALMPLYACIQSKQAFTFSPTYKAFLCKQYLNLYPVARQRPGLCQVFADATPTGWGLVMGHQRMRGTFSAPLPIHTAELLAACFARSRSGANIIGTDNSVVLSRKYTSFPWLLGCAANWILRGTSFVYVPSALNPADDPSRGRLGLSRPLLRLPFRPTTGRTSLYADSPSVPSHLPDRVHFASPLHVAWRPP
Procedure: Endogenous polymerase assay: Media containing HBV from Hep G2.2.15 cells was pelleted through 20% sucrose (SW 28 Rotor, 24,000 RPM) for 16 hours and the pellet re-suspended in 50 μl of a mixture containing 50 mM Tris (pH 7.5), 75 mM NH4Cl, 1 mM EDTA, 25 mM MgCl2, 0.1% β-mercaptoethanol, 0.5% NP-40, 0.4 mM each of dATP, dGTP, dTTP and 10 μl of P^32 labeled dCTP. […] DNA was purified by a phenol/chloroform extraction and ethanol precipitation.
HBV DNA replication involves the conversion of a pregenomic RNA (pgRNA) into DNA by the action of the HBV polymerase. Current nucleoside analogue drugs (e.g., 3TC) for treating HBV target this reaction, preventing the formation and secretion of HBV viral DNA. Because the iminosugar N-nonyl-DGJ prevents the formation of HBV rc DNA, it was important to determine whether N-nonyl-DGJ was acting by inhibiting the elongation step of the polymerase. HBV virions from normal and drug treated Hep G2.2.15 cells were purified and the endogenous polymerase activity was measured. HBV virions were purified from the culture medium of untreated cells by ultracentrifugation and the polymerase activity (in the presence of the indicated compounds) tested by the method of Ganem et al. (1998). Briefly, partially purified viral particles were incubated overnight with the indicated concentrations of compound and 10 μCi of ^32P-dCTP. Viral DNA was purified by phenol extraction and ethanol precipitation and resolved on a 1.2% agarose gel. The gel was dried and viral DNA bands detected using a Phospholmager.

Hepatitis B virus (HBV) = test: Secretion of enveloped HBV from Hep G2.2.15 cells, antigen capture/PCR assay; type: cell-based
From the text: Pairs of wells were used for each concentration point.
^2IC 50: The concentration of compound that prevented the secretion of 50% of the amount of HBV detected in the medium from wells containing untreated cultures.

Hep G2.2.15 cells [5] = test: MTT toxicity in Hep G2.2.15 cultures; details: Hep G2.2.15 cultures at conclusion of experiment (10 days)
Hep G2.2.15 cells [6] = tested on: Hep G2.2.15 cells
[7] = Bovine viral diarrhea virus isolates and strains, MDBK, read-out: Anti-viral effect on BVDV in MDBK cells IC50
[8] = MDBK cells, read-out: Anti-viral effect on BVDV in MDBK cells IC50

Row | Structure (SMILES) | CC50 [1] [µM] | Inhibitor of α glucosidase (α-glucosidase) | Inhibitor of glycolipid synthesis [2] | IC50 (BVDV; [7]) [µM] | Anti-viral effect on BVDV in MDBK cells (BVDV) | CC50 (MDBK cells) [µM] | % Viability at 10 μM (MDBK cells) [%] | % Viability at 100 μM (MDBK cells) [%] | IC50 (BVDV; [8]) [µM] | Effect on intracellular HBV DNA (HBV [4]) | Decrease of secreted virus DNA (HBV [3]; 20 μg/ml) | Effect on HBV polymerase activity (HBV polymerase; 69 μM) | other results
1 | CCOCCCCCCN1C[C@H](O)[C@@H](O)[C@@H](O)[C@H]1C [N-7-oxa-nonyl MeDGJ, N-(7-oxa-nonyl)-1,5,6-trideoxy-1,5-imino-D-galactitol] | 2100 | No | No | 1.5 | Yes |  |  |  |  |  |  |  | Selectivity index (CC50/IC50) (BVDV; BVDV in MDBK cells): 1400
2 | CCCCN1C[C@H](O)[C@@H](O)[C@@H](O)[C@H]1CO [N-butyl DGJ, reference compound] |  | No |  |  | No |  |  |  |  |  |  |  | 
3 | CCCCN1C[C@H](O)[C@@H](O)[C@H](O)[C@H]1CO [N-butyl DNJ, N-butyl deoxynojiricmycin, reference compound] |  | Yes |  |  | Yes | > 10000 | 74 | 77 | 60 to 120 | dramatic increase in the replicative forms of HBV DNA |  |  | IC50 (α-glucosidase; N-alkyl DNJ derivatives): 0.57 µM; Decrease of secreted virus DNA (HBV [3]; 1000 μg/ml): about 3 fold; Effect on HBV polymerase activity (HBV polymerase; 4.52 mM): no effect on polymerase activity
4 | CCCCCCCCCN1C[C@H](O)[C@@H](O)[C@@H](O)[C@H]1CO [N-nonyl DGJ, N-nonyl-1,5-dideoxy-1,5-imino-D-galactitol] | 250 | No |  | 5 | Yes |  |  |  |  | almost complete disappearance of intracellular HBV DNA | about 14 fold | no effect on polymerase activity | Reduction of enveloped HBV in the culture medium (Hepatitis B virus (HBV); Hep G2.2.15 cells, compared with untreated controls, nine days): at least as effective as NN-DNJ in reducing the HBV secretion; IC50 (Hepatitis B virus (HBV); Hepatitis B virus, HepG2.2.15, 216 h, Hep G2.2.15 cells, nine days of incubation, read-out: IC 50, secretion of HBV): 1.5 to 5 µM; IC50 (Hepatitis B virus (HBV); Hepatitis B virus, HepG2.2.15, read-out: IC50, HBV secretion): ~0.5 µM; Reduction of intracellular HBV DNA (HBV [4]; 2 or 20 μg/ml): greater than 25 fold; TOX 50 (MTT activity reduced to 50%) (Hep G2.2.15 cells [5]): >200 µM
5 | CCCCCCCCCN1C[C@H](O)[C@@H](O)[C@H](O)[C@H]1CO [N-nonyl DNJ, N-nonyl-deoxynojirimycin] |  | Yes |  |  | Yes | 250 | 56 | 41 | 2 to 3 | did not cause a large increase in intracellular HBV DNA but rather a reduction | ~1.5 fold | no effect on polymerase activity | IC50 (Hepatitis B virus (HBV); Hep G2.2.15 cells, antigen capture method, read-out: IC50, HBV secretion): ~1 µM; IC50 (Hepatitis B virus (HBV); Hep G2.2.15 cells, nine days of incubation, read-out: IC 50, secretion of HBV): 0.4 to 4 µM; TOX 50 (MTT activity reduced to 50%) (Hep G2.2.15 cells [6]): >100 µM
6 | CCCCCCCCCN1C[C@H](O)[C@@H](O)[C@@H](O)[C@H]1C [N-nonyl MeDGJ, N-nonyl-1,5,6-trideoxy-1,5-imino-D-galactitol] |  | No | No | 2 to 3 | Yes |  |  |  |  |  |  |  | IC50 (BVDV; Bovine viral diarrhea virus isolates and strains, MDBK, read-out: IC50, BVDV plaques): < 2.5 µM; melting point: 49 to 51 °C
